“Also recorded” adds a separate entry of the source.
Assays:
Type in all cases: in vivo
hepatocytes [1] = assay: Daily IP injections of GC-1 in wild type C57BL/6 mice: hepatocyte proliferation, β-catenin activation, cyclin-D1; settings: vs DMSO control
Procedure: All studies on mice were performed in strict accordance with Guidelines. Eight-week old male C57BL/6 male mice (Jackson/Charles River) were maintained on a standard laboratory basal diet (Test Diet) (n=4), or fed a T3-supplemented diet (4 mg/Kg of diet, Sigma Chemicals, St. Louis Mo.) (n=4). GC-1 was administered to the eight week-old male C57BL/6 male mice either via GC-1-supplemented diet (5 mg/Kg of diet, Medchem Express) for 8 days (n=4) or via daily intraperitoneal injections (IP) of GC-1 dissolved in DMSO (0.3 mg/kg/dose) for 8 days (n=7). As a control group for injections, DMSO alone was injected daily intraperitoneal (IP) for 8 days (n=5). Mice were sacrificed 24 hours after the last injection.
(§1) To label dividing hepatocytes, BrdU (5-bromodeoxyuridine) dissolved in drinking water (1 mg/ml) was given to all animals throughout the experiment period. The animals were given food and water ad libitum with a 12-hour light/dark daily cycle.
(§2) Four micron liver sections were analyzed by immunohistochemistry for β-Catenin (BD Biosciences, San Jose, Calif.), Cyclin-D1 (Thermo-Scientific, Fremont, Calif.) and PCNA (Santa Cruz Biotechnology, Dallas, Tex.). Briefly, formalin-fixed sections were deparaffinized in graded xylene and alcohol. Endogenous peroxidase was inactivated using 3% hydrogen peroxide (Sigma). For β-Catenin, Cyclin-D1 staining, slides were microwaved in Citrate buffer followed by blocking with Superblock for 10 minutes. Sections were then incubated with secondary anti-mouse (for β-catenin) or anti-rabbit (for Cyclin-D1) horseradish peroxidase-conjugated antibody for 30 minutes.
For PCNA, slides were microwaved in zinc sulfate for 12 minutes, followed by blocking with Superblock for 20 minutes. Sections were incubated with PCNA antibody (Santa Cruz) diluted 1:4,000 in phosphate buffered saline (PBS) for 60 minutes. Slides then incubated with horse anti-mouse secondary antibody (1:700 dilution) for 30 minutes. ABC was applied for 30 minutes. DAB kit was then applied. Slides were then dehydrated, coverslips placed, and allowed to dry.
(§3) Bromodeoxyuridine (BrdU) was stained with mouse antibody (Becton Dickinson) as previously described (Fanti et al. (2014) Hepatology 59, 2309-2320). Briefly, tissue sections were deparaffinized, exposed to 0.3% hydrogen peroxide in deionized water for 10 minutes to block endogenous peroxidase, treated with 2N HCl, incubated with trypsin 0.1% for 20 minutes and then with normal goat serum for 20 minutes at room temperature. Sections were then incubated overnight in cold room with anti-BrdU monoclonal antibody, followed by biotinylated goat anti-mouse IgG. DAB kit was then applied, and sections were counterstained with hematoxylin. A small segment of intestine was included from each mouse as a positive control for the staining. For quantification of BrdU staining, at least 10 high power fields (400× or 600×) fields each from at least three biological replicates were counted as indicated in the figures. Statistical analysis was performed as described below.
Protein extraction from frozen liver tissue and western blot analysis were performed as previously described (Fanti et al., (2014) Hepatology 59, 2309-2320). For protein extraction, a small amount of frozen liver tissue was obtained (over dry ice) and was homogenized using RIPA buffer with protease and phosphatase inhibitor cocktail (Sigma, St. Louis, Mo.). Samples were transferred to a 1.5 ml tube on ice, and spun in cold room centrifuge at 14,000 RPM for 5 minutes. […]

hepatocytes [2] = assay: GC-1 or T3 in hepatocyte specific β-catenin knockout mice (β-Cat LKO) and littermate controls
Procedure: Eight to 10 week old male hepatocyte specific β-catenin knockout mice (β-cat-LKO) or sex-matched littermate controls obtained from breeding homozygous floxed β-catenin mice and albumin-cre transgenic mice (as described elsewhere (Tan et al., (2006) Gastroenterology 131, 1561-1572)) were given 8 daily IP injections of GC-1 (n=4) or DMSO (n=4) and harvested around 24 hours after the last injection.
as §1, §2, §3
(§4) Protein extraction from frozen liver tissue and western blot analysis were performed as previously described (Fanti et al., (2014) Hepatology 59, 2309-2320). For protein extraction, a small amount of frozen liver tissue was obtained (over dry ice) and was homogenized using RIPA buffer with protease and phosphatase inhibitor cocktail (Sigma, St. Louis, Mo.). Samples were transferred to a 1.5 ml tube on ice, and spun in cold room centrifuge at 14,000 RPM for 5 minutes. Pellet was then discarded and sample was aliquoted and stored at −80 C for use. Fifty micrograms of the proteins were resolved by sodium dodecyl sulfate-polyacrylamide gel electrophoresis analysis, and transferred to immobilon-polyvinylidene difluoride membranes.
(§5) The primary antibodies used were against β-catenin (BD Biosciences); pSer675-β-catenin, pSer552-β-catenin, Active-β-catenin (Cell-Signaling), Cyclin-D1 (Thermo-Scientific), and β-Actin (Sigma). Dilutions of primary antibody were done according to manufacturer recommendations (1:1000 for all except Cyclin-D1 which was 1:200). Horseradish peroxidase-conjugated secondary antibodies used were goat anti-mouse (1:20,000) and goat anti-rabbit (1:10,000) (Millipore). The proteins were detected by Super-Signal West Pico Chemiluminescense Substrate (Thermo Scientific, Rockford Ill.) and visualized by autoradiography.
Total RNA was extracted by homogenizing frozen liver tissues in Trizol reagent (Invitrogen, Carlsbad, Calif.) from GC-1-injected β-Cat LKO (n=4) and littermate control mice (n=4); and GC-1-injected LRP5-6 LKO (n=3) and littermate control mice (n=3). […]

hepatocytes [3] = assay: T3 or GC-1 in LRP5-6 LKO mice and littermate controls
Procedure: Eight to 10 week-old LRP5-6-LKO were obtained from breeding homozygous LRP5-6 double floxed mice with albumin-cre transgenic mice as described previously (Yang et al. (2014) Hepatology 60, 964-976). LRP5-6-LKO or sex matched littermate controls were given either T3-supplemented diet (n=4), basal diet (n=3), IP GC-1 (n=3) or IP DMSO (n=3). Mice were sacrificed at 24 hours after the last IP injection.
To label dividing hepatocytes, BrdU (5-bromodeoxyuridine) dissolved in drinking water (1 mg/ml) was given to all animals throughout the experiment period. The animals were given food and water ad libitum with a 12-hour light/dark daily cycle. […]
as §4
as §5, with “autoradiography. […]” for “autoradiography.”

numbers of cyclin-D1-positive hepatocytes (immunohistochemistry) (hepatocytes [3]; LRP5-6 LKO vs controls): notably decreased
SMILES: Cc1cc(OCC(=O)O)cc(C)c1Cc1ccc(O)c(C(C)C)c1 [GC-1, Sobetirome]
PCNA-positive hepatocytes and BrdU incorporation (hepatocyte proliferation) (hepatocytes [1]; GC-1 0.3 mg/Kg/dose daily IP in DMSO, 8 days, 0.3 mg/kg): increased number of PCNA-positive hepatocytes as well as BrdU incorporation; also recorded: increased proliferation
P-Ser675-β-catenin level, Western blot of whole liver lysates (hepatocytes [1]; GC-1 0.3 mg/Kg/dose daily IP): increased
cyclin-D1 immunohistochemistry (hepatocytes [1]; GC-1 0.3 mg/Kg/dose daily IP): many positive hepatocytes
cyclin-D1 level, Western blot of whole liver lysates (hepatocytes [1]; GC-1 0.3 mg/Kg/dose daily IP): increased
total β-catenin level, Western blot (hepatocytes [1]; GC-1 0.3 mg/Kg/dose daily IP): did not show much difference
active β-catenin, Western blot (hepatocytes [2]; β-Cat LKO after T3 or GC-1 treatment): very faint signal
P-Ser675-β-catenin, Western blot (hepatocytes [2]; β-Cat LKO vs controls treated with GC-1 or T3): absent
nuclear cyclin-D1 by immunohistochemistry (hepatocytes [2]; β-Cat LKO vs controls, GC-1): notable decrease
BrdU incorporation in hepatocytes (hepatocyte proliferation) (hepatocytes [2]; β-Cat LKO vs littermate controls, GC-1 0.3 mg/Kg/dose IP, 8 days): decreased hepatocyte proliferation
BrdU incorporation in non-parenchymal cell population (hepatocytes [2]; β-Cat LKO, GC-1 IP): notable BrdU incorporation continued to occur
cyclin-D1 mRNA expression (RT-PCR) (hepatocytes [2]; β-catenin-LKO mice receiving GC-1 vs controls): significant decrease
pSer675-β-catenin levels, Western blot (hepatocytes [3]; LRP5-6-LKO and littermate controls): comparable or even greater levels
pSer552-β-catenin levels, Western blot (hepatocytes [3]; LRP5-6 LKO): modest increase
active β-catenin levels (hepatocytes [3]; LRP5-6 LKO after T3 or GC-1 feeding vs basal diet): no notable differences
cyclin-D1 protein and mRNA expression (hepatocytes [3]; LRP5-6 LKO vs controls): decreased
total β-catenin levels (hepatocytes [3]; LRP5-6 LKO vs controls): comparable levels
number of BrdU-labeled hepatocyte nuclei (hepatocytes [3]; LRP5-6 LKO vs controls, T3 diet 4 mg/Kg of diet or GC-1 0.3 mg/Kg/dose IP 8 days): notable decrease
active β-catenin levels in liver lysates (hepatocytes [3]; control mice fed T3 or GC-1 diet for 8 days vs basal diet): dramatic increase

— patent US10780069B2, “Use of GC-1 in transplant related population” (University of Pittsburgh—Of the Commonwealth System of …, priority 2017, dated 2020)
